The record followed here is patent publication US8853125B2, “Pyrazole compounds for controlling invertebrate pests” (BASF SE, priority 2008, dated 2014).

What all share (format): in vivo
Assay [1] relates to Cotton Aphid (aphis gossypii, Mixed Life Stages). The assay is described as follows: Cotton aphid, method a (cotyledon dip). The following applies: 120 h, read-out: mortality in comparison with untreated controls. The text has this:
(§1) The active compounds were formulated in 50:50 (vol:vol) acetone:water and 100 ppm Kinetica™ surfactant.
Cotton plants at the cotyledon stage (one plant per pot) were infested by placing a heavily infested leaf from the main colony on top of each cotyledon. The aphids were allowed to transfer to the host plant overnight, and the leaf used to transfer the aphids was removed. The cotyledons were dipped in the test solution and allowed to dry. After 5 days, mortality counts were made.

Assay [2] relates to Green Peach Aphid (Myzus persicae, Mixed Life Stages). Kind of assay: Green peach aphid, method a (leaf dip, pepper plants). As to conditions: foliar, 120 h, read-out: mortality in comparison with untreated controls.
Excerpt: as §1
Pepper plants in the 2nd leaf-pair stage (variety ‘California Wonder’) were infested with approximately 40 laboratory-reared aphids by placing infested leaf sections on top of the test plants. The leaf sections were removed after 24 hr. The leaves of the intact plants were dipped into gradient solutions of the test compound and allowed to dry. Test plants were maintained under fluorescent light (24 hour photoperiod) at about 25° C. and 20-40% relative humidity. Aphid mortality on the treated plants, relative to mortality on check plants, was determined after 5 days.

The test system of assay [3] is Cowpea Aphid (aphis craccivora). The assay is described as follows: Cowpea aphid, sprayed potted cowpea plants. As to conditions: read-out: mortality in comparison with untreated controls. The protocol:
The active compounds were formulated in 50:50 (vol:vol) acetone:water. The test solution was prepared at the day of use.
Potted cowpea plants colonized with 100-150 aphids of various stages were sprayed after the pest population had been recorded. Population reduction was assessed after 24, 72, and 120 hours.

Assay [4] relates to Vetch Aphid (Megoura viciae). Kind of assay: Vetch aphid, bean leaf disks in microtiterplates. As to conditions: foliar, 144 h. The protocol: The active compounds were formulated in 1:3 (vol:vol) DMSO:water with different concentrations of formulated compounds.
Bean leaf disks were placed into microtiterplates filled with 0.8% agar-agar and 2.5 ppm OPUS™. The leaf disks were sprayed with 2.5 μl of the test solution and 5 to 8 adult aphids were placed into the microtiterplates which were then closed and kept at 23±1° C. and 50±5% relative humidity under fluorescent light for 6 days. Mortality was assessed on the basis of vital, reproduced aphids. Aphid mortality and fecundity was then visually assessed.

On to `CN1CCn2ncc(C(=O)Nc3cccnc3)c2C1` [Compound 13, N-(pyridine-3-yl)-5-methyl-4,5,6,7-tetrahydropyrazolo-[1,5-a]pyrazine-3-carboxamide], for which the mortality at 300 ppm in assay [1], in assay [2] and in assay [3] was at least 75% throughout. In assay [4], this molecule came in with a mortality at 2500 µg/mL of at least 90%.
